Source: PubChem BioAssay (NCI)
Values joined by “and” are separate entries in the source; they are usually repeats but may differ in a detail not shown here. Equal values may be shown once.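 Method: 48-hour compound exposure of cells in 96-well plates, five concentrations, linear interpolation of endpoints. The concentration for 50% growth inhibition is given as GI50. TGI: concentration producing complete growth inhibition.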

Columns and labels:
Assay in all cases: inhibition of tumour cell growth, NCI panel, 48 h
OVCAR-3 ovarian = system: OVCAR-3 ovarian
SNB-19 CNS = system: SNB-19 CNS
UACC-62 melanoma = system: UACC-62 melanoma
A549 NSCLC = system: A549 NSCLC
NCI-H522 lung = system: NCI-H522 lung
HCT-15 colon = system: HCT-15 colon
ACHN renal = system: ACHN renal
HCC-2998 colon = system: HCC-2998 colon
SNB-75 CNS = system: SNB-75 CNS
SW-620 colon = system: SW-620 colon
HOP-92 NSCLC = system: HOP-92 NSCLC
HT29 colon = system: HT29 colon

Compound	TGI (OVCAR-3 ovarian)	TGI (SNB-19 CNS)	TGI (UACC-62 melanoma)	TGI (A549 NSCLC) [µM]	TGI (NCI-H522 lung)	TGI (HCT-15 colon)	TGI (ACHN renal)	TGI (HCC-2998 colon)	TGI (SNB-75 CNS)	TGI (SW-620 colon)	TGI (HOP-92 NSCLC)	TGI (HT29 colon)	GI50 (UACC-62 melanoma)	GI50 (A549 NSCLC) [µM]	GI50 (SNB-75 CNS)	GI50 (HOP-92 NSCLC)
COC(=O)C1(C)CCCC2(C)C3CCC4CC3(C=C4CO)CCC12 (stereo not drawn)	> 100 µM	> 100 µM	> 100 µM	> 100	> 100 µM	34.9 µM	> 100 µM	> 100 µM	> 100 µM	> 100 µM	> 100 µM	30.9 µM	–	–	–	–
Cc1cc(-c2nc3cc(O)ccc3s2)ccc1N	67.3 µM	> 100 µM	44.2 µM	> 100	> 100 µM	> 100 µM	74.7 µM	> 100 µM	95.5 µM	> 100 µM	> 100 µM	50.7 µM	–	–	–	–
NS(=O)(=O)c1nnc(/N=C(/CCC(=O)O)C(=O)O)s1	> 100 µM	> 100 µM	> 100 µM	> 100	> 100 µM	> 100 µM	> 100 µM	> 100 µM	> 100 µM	> 100 µM	> 100 µM	> 100 µM	–	–	–	–
CCCCCCCSCC1C(=O)C23C(O)C1CCC2C12COC3(O)C(O)C1C(C)(C)CCC2O (stereo not drawn)	30.3 µM	33.9 µM	24 µM	39.3	3.04 µM	22.4 µM	24.9 µM	31.4 µM	49.2 µM	3.23 µM	31.8 µM	30 µM	–	–	–	–
CC[C@](C)(O)C(=O)O[C@H]1C(=O)O[C@@H]2C[C@H]3C(C)=C[C@H](O)[C@@H](O)[C@]3(C)[C@H]3[C@@]4(O)OC[C@]32[C@@H]1[C@@H](C)[C@H]4O	84.5 µM	48.8 µM	94.2 µM	292	9.8 µM	221 µM	–	71.4 µM	86.5 µM	61.7 µM	83.1 µM	120 µM	–	–	–	–
OC(C/C(=N\N=C(/CC(O)(C(F)(F)F)C(F)(F)F)c1ccccc1)c1ccccc1)(C(F)(F)F)C(F)(F)F	> 10 µM	> 10 µM	> 10 µM	> 10	> 10 µM	> 10 µM	> 10 µM	> 10 µM	> 10 µM	> 10 µM	> 10 µM	> 10 µM	–	–	–	–
CC(=O)N1C2=CCCC2(C)c2ccccc21 (stereo not drawn)	> 100 µM	> 100 µM	> 100 µM	> 100	94.8 µM	> 100 µM	> 100 µM	99.7 µM	> 100 µM	> 100 µM	> 100 µM	> 100 µM	–	–	–	–
CCCCc1ccc(Nc2nc(N)c3ncn(COCCO)c3n2)cc1	40.3 µM	> 100 µM	38.5 µM	> 100	69.7 µM	38.6 µM	65.6 µM	48.9 µM	80.4 µM	> 100 µM	45.1 µM	57.2 µM	–	–	–	–
O=Cc1ccc(-c2cccc([N+](=O)[O-])c2)s1	> 100 µM	> 100 µM	> 100 µM	> 100	> 100 µM	> 100 µM	> 100 µM	> 100 µM	> 100 µM	> 100 µM	> 100 µM	> 100 µM	–	–	–	–
O=C(NCCN1CCCC1)c1cn2c(ccc3sc4ccccc4c(=O)c32)n1	29.1 µM	31.2 µM	31.3 µM	24.5	27.4 µM	24.4 µM	21.2 µM	18.6 µM	34.1 µM	3.32 µM	30.1 µM	7.67 µM	–	–	–	–
CCSC(=O)/C=C1\CN(C(=O)OC(C)(C)C)C1C(=O)OC(C)(C)C (stereo not drawn)	6.13 µM	25.5 µM	10.6 µM	26.4	5.79 µM	3.93 µM	8.82 µM	17.2 µM	17.4 µM	4.1 µM	8.4 µM	> 35.4 µM	–	–	–	–
O/N=C1\CCc2cc3c(cc21)CCC3	> 100 µM	> 100 µM	> 100 µM	> 100	> 100 µM	> 100 µM	> 100 µM	> 100 µM	> 100 µM	> 100 µM	> 100 µM	> 100 µM	–	–	–	–
O=C(NCC(C(=O)OCc1ccccc1)C(=O)OCc1ccccc1)OCc1ccccc1	> 100 µM	> 100 µM	> 100 µM	> 100	> 100 µM	> 100 µM	> 100 µM	> 100 µM	> 100 µM	> 100 µM	> 100 µM	> 100 µM	–	–	–	–
CN(C)/C=C/c1nnnn1-c1ccc(I)cc1	54.5 µM	59.2 µM	31.1 µM	> 100	68.8 µM	54.4 µM	63.1 µM	> 100 µM	32.2 µM	50.6 µM	34.7 µM	59.2 µM	–	–	–	–
CC(C)CCCC(C)[C@H]1CC[C@H]2[C@@H]3CC[C@H]4C[C@@H](CCC=C(c5cc(Cl)c(O)c(C(=O)O)c5)c5cc(Cl)c(O)c(C(=O)O)c5)CC[C@]4(C)[C@H]3CC[C@]12C (stereo partly drawn) (tested in a mixture with another compound)	> 50 µM	> 50 µM	> 50 µM	> 50	> 50 µM	> 50 µM	> 50 µM	> 50 µM	> 50 µM	> 50 µM	> 50 µM	> 50 µM	–	–	–	–
CC(C)c1ccc2[nH]c(O)c(C3=Nc4ccccc4C3=O)c2c1	53.8 µM	57.2 µM	69.8 µM	> 100	97 µM	> 100 µM	18.6 µM	> 100 µM	9.36 µM	> 100 µM	23.4 µM	> 100 µM	–	–	–	–
CN1CCN(CCCCN2c3ccccc3Sc3ccc(N=[N+]=[N-])cc32)CC1	22.6 µM	33.6 µM	4.1 µM	29.3	13.6 µM	23 µM	22.1 µM	18.3 µM	16.2 µM	6.85 µM	12.3 µM	4.59 µM	–	–	–	–
COc1ccc(CCc2ccccc2CC(=O)O)cc1	> 100 µM	> 100 µM	> 100 µM	> 100	> 100 µM	> 100 µM	> 100 µM	> 100 µM	> 100 µM	> 100 µM	> 100 µM	> 100 µM	–	–	–	–

Compound	TGI (OVCAR-3 ovarian)	TGI (SNB-19 CNS)	TGI (UACC-62 melanoma)	TGI (A549 NSCLC) [µM]	TGI (NCI-H522 lung)	TGI (HCT-15 colon)	TGI (ACHN renal)	TGI (HCC-2998 colon)	TGI (SNB-75 CNS)	TGI (SW-620 colon)	TGI (HOP-92 NSCLC)	TGI (HT29 colon)	GI50 (UACC-62 melanoma)	GI50 (A549 NSCLC) [µM]	GI50 (SNB-75 CNS)	GI50 (HOP-92 NSCLC)
COc1ccc2c(c1)CCCN1Cc3ccccc3CC21 (stereo not drawn)	> 100 µM	> 100 µM	> 100 µM	> 100	> 100 µM	> 100 µM	> 100 µM	> 100 µM	> 100 µM	> 100 µM	> 100 µM	> 100 µM	–	–	–	–
O=C1CCc2cc3c(cc21)CC1(Cc2cc4c(cc2C1)CCCC4)C3	> 100 µM	> 100 µM	> 100 µM	> 100	> 100 µM	> 100 µM	> 100 µM	> 100 µM	75.1 µM	> 100 µM	11.4 µM	> 100 µM	–	–	–	–
CCCCCCCCCC1CC(=O)NCC(=O)NC(C(C)C)C(=O)NC(CC(C)C)C(=O)NC(C)C(=O)NC(C(C)C)C(=O)O1 (stereo not drawn)	28.8 µM	> 48.2 µM	83.7 µM	40.9	35.2 µM	> 100 µM	> 100 µM	> 96.2 µM	18.2 µM	> 33.6 µM	41.9 µM	21.5 µM	–	–	–	–
Clc1ccc(-c2nnc(C34CC5CC(CC(C5)C3)C4)o2)cc1	> 100 µM	> 100 µM	> 100 µM	> 100	> 100 µM	> 100 µM	> 100 µM	> 100 µM	> 100 µM	> 100 µM	> 100 µM	> 100 µM	–	–	–	–
C1=NCCNCCN=Cc2ccccc2OCc2cccc(n2)COc2ccccc21	> 65.3 µM	> 100 µM	> 64.3 µM	> 100	> 66.8 µM	24.8 µM	> 100 µM	> 55.5 µM	> 31.2 µM	> 75.9 µM	> 100 µM	47.3 µM	–	–	–	–
O=C(OC(/C=C/c1ccccc1)P1(=O)N(Cc2ccccc2)[C@@H]2CCCC[C@H]2N1Cc1ccccc1)c1ccccc1 (stereo partly drawn)	> 100 µM	> 100 µM	> 100 µM	> 100	> 30.6 µM	> 100 µM	> 100 µM	> 100 µM	> 28.1 µM	> 100 µM	8.08 µM	> 100 µM	–	–	–	–
O=[N+]([O-])c1ccc(NC(=S)Nc2ccccn2)cc1	99.4 µM	> 100 µM	> 100 µM	> 100	> 100 µM	> 100 µM	> 100 µM	> 100 µM	71.6 µM	> 100 µM	> 100 µM	> 100 µM	–	–	–	–
Cc1ccc(/C(O)=C/c2nc3ccccc3[nH]c2=O)c(C)c1	> 73.7 µM	> 45.9 µM	43.7 µM	> 58.8	38.4 µM	> 100 µM	30 µM	> 100 µM	20.3 µM	> 100 µM	16.9 µM	> 86.3 µM	–	–	–	–
C/C1=C\CC/C(C)=C/C=C(/C(C)C)CC/C(C(=O)O)=C/CC1	59.5 µM	> 100 µM	> 100 µM	> 100	> 100 µM	> 100 µM	> 100 µM	> 100 µM	> 100 µM	> 100 µM	> 100 µM	> 100 µM	–	–	–	–
CCOC(=O)/C=C/c1c[nH]c(C(=O)OCC)c1	> 100 µM	> 100 µM	> 100 µM	> 100	> 100 µM	> 100 µM	–	> 100 µM	> 100 µM	> 100 µM	> 100 µM	> 100 µM	–	–	–	–
COc1cc(C2c3cc4c(cc3[C@@H](NCCCN(C)C)[C@H]3COC(=O)C23)OCO4)cc(OC)c1O (stereo partly drawn)	1.79 µM and 3.76 µM	1.45 µM and 1.91 µM	0.643 µM and 0.924 µM	0.712	1.65 µM and 2.47 µM	1.69 µM and 4.63 µM	0.369 µM and 0.496 µM	1.48 µM and 1.35 µM	4.21 µM and 6.84 µM	1.18 µM and 4.27 µM	0.368 µM and 1.85 µM	> 37.5 µM and 6.09 µM	0.112 µM and 0.288 µM	0.03	0.393 µM and 0.838 µM	0.0952 µM and 0.482 µM
CN(C)c1ccc(N=Nc2cccc3ncccc23)cc1	> 100 µM	> 100 µM	> 100 µM	> 100	> 73.8 µM	> 100 µM	> 100 µM	> 100 µM	> 100 µM	> 100 µM	> 100 µM	> 100 µM	–	–	–	–
COC(=O)/C=C(/C(=O)OC)c1c(C)cc2c(C)cc(C)cc(C)c1-2	38.3 µM	> 100 µM	> 66.5 µM	> 84.5	28.4 µM	18.8 µM	> 100 µM	> 100 µM	> 72.2 µM	> 100 µM	> 100 µM	28.3 µM	–	–	–	–
N/C(COc1ccc(Cl)cc1)=N\NC(=O)c1ccncc1	> 100 µM	> 100 µM	> 100 µM	> 100	> 100 µM	> 100 µM	> 100 µM	> 100 µM	85.2 µM	> 100 µM	> 100 µM	> 100 µM	–	–	–	–
[O-]c1c[n+](CC[n+]2cc([O-])on2)no1	> 100 µM	> 100 µM	> 100 µM	> 100	> 100 µM	> 100 µM	> 100 µM	> 100 µM	> 100 µM	> 100 µM	> 100 µM	> 100 µM	–	–	–	–
CC(C)(C)[Si](C)(C)OCC#C[C@@]1(O)CCCCC1CC(Sc1ccccc1)Sc1ccccc1 (stereo partly drawn)	26.4 µM	28.7 µM	26.7 µM	28	26.8 µM	34.5 µM	27.4 µM	30.7 µM	28.7 µM	31.7 µM	37.4 µM	27 µM	–	–	–	–
COc1cccc(C[C@H]2COC(=O)[C@]2(O)Cc2cccc(OC)c2)c1	> 100 µM	> 100 µM	> 100 µM	> 100	> 100 µM	> 100 µM	> 100 µM	> 100 µM	> 100 µM	> 100 µM	> 100 µM	> 100 µM	–	–	–	–
ClCc1ccc2ccc3ccc(CCl)nc3c2n1	4.81 µM	27.9 µM	2.64 µM	> 42.2	3.44 µM	4.69 µM	–	8.59 µM	5.83 µM	7.79 µM	3.63 µM	6.28 µM	–	–	–	–
